The text below walks through data of PubChem BioAssay (NCI).

Among the test systems are UACC-257 melanoma; HOP-62 NSCLC; U251 CNS; IGROV1 ovarian; HCT-116 colon; UO-31 renal; MALME-3M melanoma; NCI-H460 lung; MDA-MB-231 breast; BT-549 breast.
Test in all cases: inhibition of tumour cell growth, NCI panel, 48 h

Structures are written as SMILES.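 Step 1: Grow cells in 96-well plates. Step 2: Expose to compound for 48 hours at 5 concentrations. Step 3: Interpolate endpoints linearly; if unreached, use highest concentration. GI50 marks 50% less growth. TGI: total growth inhibition.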

Turning to `CC(=O)N(O)c1ccc(-c2nc3ccccc3s2)cc1`, the TGI with UACC-257 melanoma, with HOP-62 NSCLC, in the test with U251 CNS, in the test on IGROV1 ovarian, in the test with HCT-116 colon and in the test with UO-31 renal was over 100 µM throughout. The TGI in the test on MALME-3M melanoma was 88.9 µM; with NCI-H460 lung it was over 100 µM; with MDA-MB-231 breast, over 100 µM.
`C[C@H](C/C=C/C(C)(C)O)[C@H]1CC[C@@]2(C)[C@@H]3CC[C@H]4C(C)(C)[C@@H](O)CC[C@@]45C[C@@]35CC[C@]12C`: the TGI in the test on UACC-257 melanoma is 33.2 µM; in the test on HOP-62 NSCLC, 33.6 µM; in the test on U251 CNS it was 53.8 µM; in the test with IGROV1 ovarian, 48.9 µM; in the test on HCT-116 colon it was 37.1 µM; with BT-549 breast it was 56 µM. Further, the figures for the TGI in the test on UO-31 renal, in the test on NCI-H460 lung and in the test on MDA-MB-231 breast were 53.6 µM, 54.2 µM and 33.2 µM, respectively.
Turning to `CC1(C)CC(=O)C2=C(C1)OC1=C(CC(C)(C)CC1=O)C2c1ccccc1[N+](=O)[O-]` (configuration not stated), the TGI in the test with HOP-62 NSCLC is over 100 µM; in the test with U251 CNS, over 100 µM; in the test with IGROV1 ovarian, over 100 µM; in the test on HCT-116 colon it was over 100 µM; with UO-31 renal, 3.69 µM; with MALME-3M melanoma, over 100 µM. For the same compound, the TGI with NCI-H460 lung and in the test on MDA-MB-231 breast was over 100 µM throughout.
`O=C1Nc2ccccc2Nc2ccncc21`: the TGI with UACC-257 melanoma, in the test with HOP-62 NSCLC, in the test on U251 CNS, with IGROV1 ovarian, in the test with HCT-116 colon and with UO-31 renal was over 100 µM each time. The TGI in the test with MALME-3M melanoma and in the test on NCI-H460 lung was over 100 µM in each case.
As for `O=C(NC(=S)NC(=O)c1cc(O)c(O)c(O)c1)c1cc(O)c(O)c(O)c1`, the TGI is 44.8 µM with UACC-257 melanoma; 84.9 µM in the test on U251 CNS; 44.4 µM in the test on HCT-116 colon; 44.1 µM in the test on UO-31 renal; over 100 µM in the test on NCI-H460 lung; 74.1 µM in the test with MDA-MB-231 breast.
Consider `O=C(NNc1nc(-c2ccccc2)cs1)C(F)(F)F`, for which the TGI was over 100 µM with UACC-257 melanoma; over 100 µM in the test on HOP-62 NSCLC; 98.7 µM with U251 CNS; over 100 µM with IGROV1 ovarian; over 100 µM in the test with HCT-116 colon; 31.6 µM with UO-31 renal. Moreover, the TGI in the test on MALME-3M melanoma, with NCI-H460 lung and in the test on MDA-MB-231 breast was over 100 µM throughout.
Regarding `Cc1nc2ccccc2c(/C=C/c2ccc(Cl)cc2)c1C(=O)/C=C/c1ccc(Cl)cc1`, the GI50 was 1.39 µM with U251 CNS, 1.06 µM in the test on UO-31 renal and 1.41 µM with NCI-H460 lung. Moreover, the TGI in the test on U251 CNS was 3.03 µM; with UO-31 renal, 2.25 µM; in the test on NCI-H460 lung, 3.15 µM.
As for `CCc1ccccc1NNc1cc(=O)[nH]c(=O)[nH]1`, the TGI is 35.9 µM in the test on UACC-257 melanoma; 35.1 µM in the test on HOP-62 NSCLC; 31.2 µM in the test on U251 CNS; 37.8 µM in the test with IGROV1 ovarian; 31.1 µM in the test on HCT-116 colon; 41.4 µM with BT-549 breast. Besides, the TGI in the test with UO-31 renal turned out to be 31.1 µM; in the test on NCI-H460 lung, 52.6 µM; with MDA-MB-231 breast, 32.3 µM.
For the compound `Cc1ccccc1NC(=O)Cc1csc2[n+]1C(=O)/C(=C/c1ccc([N+](=O)[O-])cc1)S2`, the TGI with UACC-257 melanoma is over 100 µM; with HOP-62 NSCLC, over 100 µM; with U251 CNS, over 100 µM; with IGROV1 ovarian it was over 100 µM; in the test on HCT-116 colon, over 100 µM; in the test on BT-549 breast, 38.6 µM. Besides, the TGI is 85.5 µM in the test on UO-31 renal, 88 µM in the test on NCI-H460 lung and over 100 µM in the test with MDA-MB-231 breast.
As for `CC(C)C1N(C)c2ccc(Cl)cc2[C@H]2c3ccccc3CCN12` (some centres not stated), the TGI with UACC-257 melanoma was 90.3 µM; with HOP-62 NSCLC, over 100 µM; in the test with U251 CNS it was over 100 µM; with IGROV1 ovarian it was over 100 µM; with HCT-116 colon, over 100 µM; in the test with BT-549 breast, over 100 µM. For the same compound, the TGI in the test with UO-31 renal was over 100 µM; in the test with NCI-H460 lung it was over 100 µM; in the test with MDA-MB-231 breast, 96.2 µM.
On to `COc1cccc(/C=N/[N-]C(N)=O)c1[O-].[Cu+2].[OH3+].c1ccc(-c2ccccn2)nc1`, for which the TGI in the test on UACC-257 melanoma is over 100 µM; in the test with HOP-62 NSCLC, over 67.7 µM; in the test on U251 CNS it was 31.3 µM; with IGROV1 ovarian, over 74.8 µM; in the test on HCT-116 colon, over 63 µM; with UO-31 renal, over 100 µM. Further, the TGI in the test on MALME-3M melanoma and in the test on NCI-H460 lung was over 100 µM each time.
For `Oc1[nH]c2ccccc2c1/C=c1/cc2c(c(-c3ccc(F)cc3)n1)=Nc1ccccc1-2`, the GI50 in the test with UACC-257 melanoma is 0.714 µM; in the test with U251 CNS, 0.94 µM; in the test on IGROV1 ovarian, 0.554 µM; in the test with HCT-116 colon, 1.01 µM; in the test with UO-31 renal, 0.353 µM; in the test with MALME-3M melanoma it was 0.843 µM. The GI50 in the test with MDA-MB-231 breast is 0.609 µM. Further, the TGI with UACC-257 melanoma came to 2.88 µM; in the test with U251 CNS, 2.17 µM; with IGROV1 ovarian, 1.93 µM; in the test with HCT-116 colon it was 2.24 µM; in the test with UO-31 renal, 2.21 µM; in the test with MALME-3M melanoma it was 2.26 µM. The same compound had a TGI in the test with MDA-MB-231 breast of 2.39 µM.
Consider `CC1C(c2ccc(Cl)cc2)c2cc3c(cc2OC1N1CCOCC1)OCO3` (configuration not stated), for which the TGI with UACC-257 melanoma, with HOP-62 NSCLC, in the test on IGROV1 ovarian, with HCT-116 colon, in the test with UO-31 renal and in the test on NCI-H460 lung was over 100 µM in each case.
Take `CC(=O)[CH-]C(=O)c1ccccc1.CC(=O)[CH-]C(=O)c1ccccc1.C[C@]12CCC(=O)C=C1CC[C@@H]1C2CC[C@@]2(C)C1CC[C@]2(C)[O-].C[C@]12CCC(=O)C=C1CC[C@@H]1C2CC[C@@]2(C)C1CC[C@]2(C)[O-].Cl.[Ti+4]` (some centres not stated): the GI50 in the test with UACC-257 melanoma was 18 µM; in the test with HOP-62 NSCLC it was 24.1 µM; in the test on U251 CNS, 15.2 µM; in the test on IGROV1 ovarian it was 19.3 µM; with HCT-116 colon it was 22.2 µM; in the test on UO-31 renal, 24.2 µM. Moreover, the GI50 with MALME-3M melanoma was 13.2 µM; in the test on NCI-H460 lung it was 16.4 µM. Further, the TGI in the test with UACC-257 melanoma was 51.7 µM; with HOP-62 NSCLC it was 62.7 µM; with U251 CNS, 54.2 µM; with IGROV1 ovarian, 46.1 µM; in the test with HCT-116 colon it was over 100 µM; with UO-31 renal it was 85.3 µM. Moreover, the TGI in the test on MALME-3M melanoma amounted to 37.1 µM; in the test with NCI-H460 lung it was 49.9 µM.
With `Cc1cc(=O)[nH]c(NN2C(Cl)C(=O)C2c2cccc(Cl)c2)n1` (configuration not stated), the TGI in the test on UACC-257 melanoma is over 100 µM; in the test with HOP-62 NSCLC it was over 100 µM; with U251 CNS, over 100 µM; in the test with IGROV1 ovarian, 37.1 µM; with UO-31 renal, 87.6 µM; in the test on NCI-H460 lung, 43.2 µM.
Consider `CCOC(=O)C1=COC(C)(CCc2ccccc2)CC1=O` (configuration not stated), for which the TGI in the test with UACC-257 melanoma, with HOP-62 NSCLC, in the test with U251 CNS, with HCT-116 colon, in the test with BT-549 breast and with UO-31 renal was over 100 µM each time. The TGI in the test on NCI-H460 lung and with MDA-MB-231 breast was over 100 µM throughout.
For `COc1cc(N(Cc2ccc3oc(=O)c(-c4ccccc4)nc3c2)Cc2ccc3oc(=O)c(-c4ccccc4)nc3c2)cc(OC)c1OC`, the TGI in the test on UACC-257 melanoma, in the test with HOP-62 NSCLC, in the test on U251 CNS, with IGROV1 ovarian, in the test with HCT-116 colon and in the test on UO-31 renal was over 10 µM each time. The TGI with NCI-H460 lung and in the test with MDA-MB-231 breast was over 10 µM in each case.
In the case of `O=C1Nc2ccccc2/C1=c1\[nH]c(=O)/c(=C\c2ccc(OCc3ccccc3)cn2)[nH]c1=O`, the TGI in the test on UACC-257 melanoma is over 100 µM; with HOP-62 NSCLC it was 65.7 µM; in the test with U251 CNS, 44.8 µM; in the test on IGROV1 ovarian, over 100 µM; with HCT-116 colon, over 100 µM; in the test with UO-31 renal, 0.848 µM. Also, the TGI with MALME-3M melanoma is over 100 µM; with NCI-H460 lung, over 100 µM; in the test with MDA-MB-231 breast it was 91.7 µM.
For the compound `CC(C)(C)N(Cc1ccc2c(c1)OCO2)C(=O)/C=C\Sc1ccccc1`, the TGI in the test with UACC-257 melanoma, with HOP-62 NSCLC, with U251 CNS, in the test with IGROV1 ovarian, with HCT-116 colon and in the test with BT-549 breast was over 100 µM each time. For the same compound, the TGI with UO-31 renal and with MDA-MB-231 breast was over 100 µM each time.
With `Cn1c(N/N=C/c2ccccc2)nc(-c2ccc([N+](=O)[O-])cc2)c(C#N)c1=O`, the TGI in the test with UACC-257 melanoma, in the test with HOP-62 NSCLC, in the test with U251 CNS, with IGROV1 ovarian, in the test on HCT-116 colon and in the test with UO-31 renal was over 100 µM each time. For the same compound, the TGI is over 100 µM in the test with MALME-3M melanoma, over 100 µM in the test on NCI-H460 lung and 86.7 µM with MDA-MB-231 breast.
As for `Clc1ccc(OCc2nn3c(CCc4nnc5sc(COc6ccc(Cl)cc6)nn45)nnc3s2)cc1`, the TGI with UACC-257 melanoma is 82.9 µM; in the test on HOP-62 NSCLC it was over 100 µM; with U251 CNS, 54.6 µM; in the test with IGROV1 ovarian it was 55.1 µM; with HCT-116 colon, 85.4 µM; in the test on UO-31 renal, 3.03 µM. For the same compound, the TGI in the test on NCI-H460 lung is 51.4 µM; with MDA-MB-231 breast it was 61.8 µM.
